In patent US20080167384A1, “Use of Zeaxanthin For the Treatment of Diseases of the Peripheral Retina” (priority 2005, published 2008):

Assay: Trial of zeaxanthin supplementation: macular pigment density monitored by heterochromatic flicker photometry (HCFP)
Format: in vivo
Conditions: Zeaxanthin 20 mg/day, 6-12 months
Experimental: The usefulness of zeaxanthin for the purposes of the present invention can be seen from the results of a trial with a duration of 6-12 months carried out with 46 subjects which were randomized to two treatment groups: Zeaxanthin, 20 mg/day (n=23), and Placebo (n=23). Macular pigment density (MPD) during this trial was monitored monthly using heterochromatic flicker photometry (HCFP) by independently measuring luminances at central and eccentric (5°=reference) locations. MPD is then calculated by subtracting the luminance at the reference (=eccentric) location from the luminance at the retinal centre.

With `CC1=C(/C=C/C(C)=C/C=C/C(C)=C/C=C/C=C(C)/C=C/C=C(C)/C=C/C2=C(C)C[C@@H](O)CC2(C)C)C(C)(C)C[C@H](O)C1` [zeaxanthin] the “rise of luminance at the eccentric reference location” value (HCFP, eccentric (5°) reference location) was “approximately 8%”, the “rise of luminance at the central location” value (HCFP, retinal centre) was “approximately 8%” and the “increase of macular pigment density (MPD) computed with the pre-supplementation eccentric reference luminance” value (actual central luminances minus pre-supplementation eccentric reference luminance) was “about 11%”.
